Test results as given in patent US9371307B2, “Serine protease inhibitors” (THE JOHNS HOPKINS UNIVERSITY, priority 2011, dated 2016).
Like-named read-outs stand apart in the source and are kept apart here.

Assays:
Type in all cases: biochemical
[1] = target: DPPIV (Homo sapiens, UniProt P27487); assay: Selectivity of chymase inhibitors against DPPIV; conditions: ratio of Ki enzyme/Ki chymase
[2] = target: Thrombin (Homo sapiens, UniProt P00734); assay: Selectivity of chymase inhibitors against thrombin; conditions: ratio of Ki enzyme/Ki chymase
Experimental: (§1) As provided in Table 1, hereinabove in Example 2, selectivity was tested by measuring the inhibitory activity of ef-rs-03-075 and analogs against other serine proteases, including thrombin, trypsin, and tryrptase.

[3] = target: Tryptase (Homo sapiens, UniProt Q15661); assay: Selectivity of chymase inhibitors against tryptase; conditions: ratio of Ki enzyme/Ki chymase
Tryptase, sequence (Q15661 31-275): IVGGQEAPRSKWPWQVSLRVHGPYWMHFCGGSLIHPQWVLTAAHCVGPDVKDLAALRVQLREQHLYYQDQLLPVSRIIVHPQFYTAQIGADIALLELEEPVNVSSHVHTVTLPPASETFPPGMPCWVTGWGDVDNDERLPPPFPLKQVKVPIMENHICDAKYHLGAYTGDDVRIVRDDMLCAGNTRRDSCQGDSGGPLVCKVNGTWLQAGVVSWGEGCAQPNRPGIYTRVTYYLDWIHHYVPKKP
Experimental: as §1

[4] = target: T1, human chymase (Homo sapiens, UniProt P23946); assay: Inhibition of chymase (Ki; Lineweaver-Burk double reciprocal plots)
T1 construct: In its active form within the secretory granules of mast cells, human chymase contains 226 amino acid residues
T1 sequence (P23946 22-247): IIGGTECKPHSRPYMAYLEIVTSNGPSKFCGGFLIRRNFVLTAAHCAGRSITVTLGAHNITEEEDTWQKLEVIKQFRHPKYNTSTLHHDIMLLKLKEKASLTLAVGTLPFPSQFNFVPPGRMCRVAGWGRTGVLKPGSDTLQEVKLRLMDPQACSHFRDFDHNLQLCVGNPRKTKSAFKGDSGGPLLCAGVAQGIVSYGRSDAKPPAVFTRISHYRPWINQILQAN

[5] = test system: Trypsin; assay: Selectivity of chymase inhibitors against trypsin; conditions: ratio of Ki enzyme/Ki chymase
Experimental: as §1

DPPIV, sequence (P27487 whole entry, species assumed): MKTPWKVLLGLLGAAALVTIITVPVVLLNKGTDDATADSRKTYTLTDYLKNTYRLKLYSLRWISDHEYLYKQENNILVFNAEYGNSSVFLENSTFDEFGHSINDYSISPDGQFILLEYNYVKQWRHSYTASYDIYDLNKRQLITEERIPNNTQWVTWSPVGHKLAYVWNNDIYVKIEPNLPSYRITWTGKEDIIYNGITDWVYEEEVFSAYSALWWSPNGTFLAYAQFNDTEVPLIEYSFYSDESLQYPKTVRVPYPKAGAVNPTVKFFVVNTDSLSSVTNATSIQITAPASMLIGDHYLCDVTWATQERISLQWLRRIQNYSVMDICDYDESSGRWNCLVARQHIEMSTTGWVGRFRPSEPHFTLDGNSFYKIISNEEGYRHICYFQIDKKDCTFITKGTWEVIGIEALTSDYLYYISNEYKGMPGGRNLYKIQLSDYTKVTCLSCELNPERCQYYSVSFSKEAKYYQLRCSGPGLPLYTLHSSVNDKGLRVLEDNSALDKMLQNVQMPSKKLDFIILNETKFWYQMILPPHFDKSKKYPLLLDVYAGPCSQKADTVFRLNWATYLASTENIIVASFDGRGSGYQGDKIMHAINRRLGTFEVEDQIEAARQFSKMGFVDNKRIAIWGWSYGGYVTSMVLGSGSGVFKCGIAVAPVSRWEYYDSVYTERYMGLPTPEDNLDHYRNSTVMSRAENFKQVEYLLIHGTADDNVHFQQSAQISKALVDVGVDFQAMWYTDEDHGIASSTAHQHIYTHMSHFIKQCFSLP

| Compound | Selectivity of chymase inhibitors: DPPIV [1] | Selectivity of chymase inhibitors: Thrombin [2] | Selectivity of chymase inhibitors: Tryptase [3] | Ki ([4]; read-out: Chymase Ki) [µM] | Selectivity of chymase inhibitors: Trypsin [5] | inhibitory mechanism ([4]; double reciprocal plot of substrate concentration vs. reaction velocity, various inhibitor concentrations (FIG. 4)) | Ki ([4]; value given in the description text as 'high affinity', read-out: affinity) [µM] |
| --- | --- | --- | --- | --- | --- | --- | --- |
| O=S(=O)(/C=C/c1cccc(Cl)c1)N(Cc1cccc(Br)c1)c1cccc(Cl)c1 [ef-rs-08-050] | 40 | 45 | >320 | 1.22 ± 0.19 |  |  |  |
| O=S(=O)(/C=C/c1cccc(Cl)c1)N(Cc1ccccc1)c1cccc(Cl)c1 [ef-rs-03-019-P4] | >100 | >200 | >275 | 1.32 ± 0.28 |  |  |  |
| O=S(=O)(/C=C/c1cccc(Cl)c1)N(Cc1ccsc1)c1cccc(Cl)c1 [ef-rs-03-038-P1] | 34 | >60 | >240 | 1.57 ± 0.39 |  |  |  |
| O=S(=O)(/C=C/c1cccc(Br)c1)N(Cc1ccccc1)c1cccc(Cl)c1 [ef-rs-03-015-P2] | >100 | >200 | >260 | 1.58 ± 0.13 |  |  |  |

Second part, the molecule after the results:

| Selectivity of chymase inhibitors: DPPIV [1] | Selectivity of chymase inhibitors: Thrombin [2] | Selectivity of chymase inhibitors: Tryptase [3] | Ki ([4]; read-out: Chymase Ki) [µM] | Selectivity of chymase inhibitors: Trypsin [5] | inhibitory mechanism ([4]; double reciprocal plot of substrate concentration vs. reaction velocity, various inhibitor concentrations (FIG. 4)) | Ki ([4]; value given in the description text as 'high affinity', read-out: affinity) [µM] | Compound |
| --- | --- | --- | --- | --- | --- | --- | --- |
| 70 | >50 | >80 | 1.19 ± 0.12 |  |  |  | O=S(=O)(/C=C/c1cccc(Cl)c1)N(Cc1cccc(F)c1)c1cccc(Cl)c1 [ef-rs-08-057] |
| 37 | >320 | >410 | 0.959 ± 0.042 | >110 | competitive inhibition | 0.544 | O=S(=O)(/C=C/c1cccc(Cl)c1)N(Cc1cccc(Cl)c1)c1cccc(Cl)c1 [ef-rs-03-075, (E)-N-(3-chlorobenzyl)-N,2-bis(3-chlorophenyl)ethenesulfonamide] |
| 10 | >75 | >100 | 0.978 ± 0.087 |  |  |  | O=S(=O)(/C=C/c1cccc(Cl)c1)N(Cc1cccc(Cl)c1)c1cccc(OCc2cccc(Cl)c2)c1 [ef-rs-08-052] |
| 170 | 13 | >350 | 1.11 ± 0.22 |  |  |  | Cc1cccc(CN(c2cccc(Cl)c2)S(=O)(=O)/C=C/c2cccc(Cl)c2)c1 [ef-rs-08-049] |
| 80 | 20 | >310 | 1.26 ± 0.2 |  |  |  | O=S(=O)(/C=C/c1cccc(Cl)c1)N(Cc1ccc(Cl)cc1)c1cccc(Cl)c1 [ef-rs-08-056] |
| 16 | 70 | >110 | 0.903 ± 0.15 |  |  |  | O=S(=O)(/C=C/c1cccc(Cl)c1)N(Cc1ccc(Cl)c(Cl)c1)c1cccc(Cl)c1 [ef-rs-08-051] |
| 17 | >60 | >310 | 1.34 ± 0.39 |  |  |  | O=S(=O)(/C=C/c1cccc(Br)c1)N(Cc1ccsc1)c1cccc(Cl)c1 [ef-rs-03-039-P1] |
